# From patent US20090131417A1, “SUBSTITUTED PYRIDYL AMIDE COMPOUNDS AS MODULATORS OF THE HISTAMINE H3 RECEPTOR” (priority 2007, published 2009)
# Biological target: T1, cloned human H3 receptors, stably expressed in SK-N-MC cells (Homo sapiens, UniProt Q9Y5N1)
# T1 construct: expressed in transfected cells; host or cells: SK-N-MC cells
# Experiment: H3 Receptor Binding (Human)
# Conditions: average of results obtained
# Description: Binding of compounds to the cloned human H3 receptors, stably expressed in SK-N-MC cells, was performed as described by Barbier, A. J. et al. (Br. J. Pharmacol. 2004, 143(5), 649-661). Data for compounds tested in this assay are presented in Table 1, as an average of results obtained.
# T1 sequence (Q9Y5N1 whole entry): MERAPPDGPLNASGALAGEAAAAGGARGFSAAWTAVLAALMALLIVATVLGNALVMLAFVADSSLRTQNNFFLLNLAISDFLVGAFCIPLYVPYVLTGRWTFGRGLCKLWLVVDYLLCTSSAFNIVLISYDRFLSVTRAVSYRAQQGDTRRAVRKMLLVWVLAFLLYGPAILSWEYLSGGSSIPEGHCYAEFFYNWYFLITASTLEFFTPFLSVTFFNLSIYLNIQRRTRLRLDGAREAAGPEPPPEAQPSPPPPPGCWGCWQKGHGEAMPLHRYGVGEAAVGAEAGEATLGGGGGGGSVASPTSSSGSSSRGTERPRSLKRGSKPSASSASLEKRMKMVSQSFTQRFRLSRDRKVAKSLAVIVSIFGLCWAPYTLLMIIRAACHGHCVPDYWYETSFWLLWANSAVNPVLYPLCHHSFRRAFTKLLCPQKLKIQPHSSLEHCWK
row,SMILES,Ki [nM]
1,"N#Cc1cccc(Oc2cncc(C(=O)N3CCCN(C4CCC4)CC3)c2)c1 [Example 3, 3-[5-(4-Cyclobutyl-[1,4]diazepane-1-carbonyl)-pyridin-3-yloxy]-benzonitrile]",1.9
2,"CC(C)Oc1cncc(C(=O)N2CCCN(C3CCC3)CC2)c1 [Example 7, (4-Cyclobutyl-[1,4]diazepan-1-yl)-(5-isopropoxy-pyridin-3-yl)-methanone]",11
3,"O=C(c1cncc(Oc2cccc(Cl)c2)c1)N1CCCN(C2CCC2)CC1 [Example 2, [5-(3-Chloro-phenoxy)-pyridin-3-yl]-(4-cyclobutyl-[1,4]diazepan-1-yl)-methanone]",3.2
4,"COc1cccc(Oc2cncc(C(=O)N3CCCN(C4CCC4)CC3)c2)c1 [Example 5, (4-Cyclobutyl-[1,4]diazepan-1-yl)-[5-(3-methoxy-phenoxy)-pyridin-3-yl]-methanone]",3.4
5,"O=C(c1cncc(Oc2ccccc2)c1)N1CCCN(C2CCC2)CC1 [Example 4, (4-Cyclobutyl-[1,4]diazepan-1-yl)-(5-phenoxy-pyridin-3-yl)-methanone]",3.4
6,"O=C(c1cncc(Oc2cccc(F)c2)c1)N1CCCN(C2CCC2)CC1 [Example 6, (4-Cyclobutyl-[1,4]diazepan-1-yl)-[5-(3-fluoro-phenoxy)-pyridin-3-yl]-methanone]",1
7,"O=C(c1cncc(Oc2ccc(F)cc2)c1)N1CCCN(C2CCC2)CC1 [Example 1, (4-Cyclobutyl-[1,4]diazepan-1-yl)-[5-(4-fluoro-phenoxy)-pyridin-3-yl]-methanone]",3.6

# The remaining lines, values ahead:
row,Ki [nM],SMILES
1,12,"O=C(c1cc(Sc2ccc(F)cc2)ccn1)N1CCCN(C2CCC2)CC1 [Example 15, (4-Cyclobutyl-[1,4]diazepan-1-yl)-[4-(4-fluoro-phenylsulfanyl)-pyridin-2-yl]-methanone]"
2,11,"O=C(c1cc(Oc2ccccc2)ccn1)N1CCCN(C2CCC2)CC1 [Example 13, (4-Cyclobutyl-[1,4]diazepan-1-yl)-(4-phenoxy-pyridin-2-yl)-methanone]"
3,18,"O=C(c1cncc(Sc2ncccn2)c1)N1CCCN(C2CCC2)CC1 [Example 11, (4-Cyclobutyl-[1,4]diazepan-1-yl)-[5-(pyrimidin-2-ylsulfanyl)-pyridin-3-yl]-methanone]"
4,2.9,"O=C(c1cncc(Sc2ccc(F)cc2)c1)N1CCCN(C2CCC2)CC1 [Example 8, (4-Cyclobutyl-[1,4]diazepan-1-yl)-[5-(4-fluoro-phenylsulfanyl)-pyridin-3-yl]-methanone]"
5,6.6,"O=C(c1cncc(Sc2ccccn2)c1)N1CCCN(C2CCC2)CC1 [Example 10, (4-Cyclobutyl-[1,4]diazepan-1-yl)-[5-(pyridin-2-ylsulfanyl)-pyridin-3-yl]-methanone]"
6,17,"O=C(c1cc(Oc2ccc(F)cc2)ccn1)N1CCCN(C2CCC2)CC1 [Example 14, (4-Cyclobutyl-[1,4]diazepan-1-yl)-[4-(4-fluoro-phenoxy)-pyridin-2-yl]-methanone]"
7,3,"CC(C)Sc1cncc(C(=O)N2CCCN(C3CCC3)CC2)c1 [Example 9, (4-Cyclobutyl-[1,4]diazepan-1-yl)-(5-isopropylsulfanyl-pyridin-3-yl)-methanone]"
8,1.8,"O=C(c1cncc(Sc2ccncc2)c1)N1CCCN(C2CCC2)CC1 [Example 12, (4-Cyclobutyl-[1,4]diazepan-1-yl)-[5-(pyridin-4-ylsulfanyl)-pyridin-3-yl]-methanone]"

# Biological target: T2, rat H3 receptor (Rattus norvegicus, UniProt Q9QYN8)
# T2 construct: expressed in transfected cells; host or cells: SK-N-MC cells (subline with reporter construct)
# Experiment: Cyclic AMP Accumulation (rat H3)
# Type: cell-based
# Conditions: SK-N-MC cells expressing reporter construct and rat H3 receptor; Example 1 tested as TFA salt; read-out: Rat pA2 (converted)
# Description: (§1) Sublines of SK-N-MC cells were created that expressed a reporter construct and either the human or rat H3 receptor. The pA2 values were obtained as described by Barbier et al. (2004). Example 1 was tested as the corresponding TFA salt.
# T2 sequence (Q9QYN8 whole entry): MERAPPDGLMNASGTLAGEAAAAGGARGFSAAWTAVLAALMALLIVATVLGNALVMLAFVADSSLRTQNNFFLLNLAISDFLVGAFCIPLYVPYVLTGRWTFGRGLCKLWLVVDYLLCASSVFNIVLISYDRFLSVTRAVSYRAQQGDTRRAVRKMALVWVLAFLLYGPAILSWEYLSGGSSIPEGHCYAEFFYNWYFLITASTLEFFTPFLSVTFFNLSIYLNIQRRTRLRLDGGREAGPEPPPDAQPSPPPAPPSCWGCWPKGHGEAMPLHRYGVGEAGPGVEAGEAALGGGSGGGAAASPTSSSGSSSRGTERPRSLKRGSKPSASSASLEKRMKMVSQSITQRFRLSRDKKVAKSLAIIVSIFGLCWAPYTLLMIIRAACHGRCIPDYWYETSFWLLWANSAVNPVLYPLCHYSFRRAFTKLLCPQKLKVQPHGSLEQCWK
row,Kb [nM],SMILES
1,6.17,"N#Cc1cccc(Oc2cncc(C(=O)N3CCCN(C4CCC4)CC3)c2)c1 [Example 3, 3-[5-(4-Cyclobutyl-[1,4]diazepane-1-carbonyl)-pyridin-3-yloxy]-benzonitrile]"
2,43.7,"O=C(c1cncc(Sc2ccc(F)cc2)c1)N1CCCN(C2CCC2)CC1 [Example 8, (4-Cyclobutyl-[1,4]diazepan-1-yl)-[5-(4-fluoro-phenylsulfanyl)-pyridin-3-yl]-methanone]"
3,20.4,"O=C(c1cncc(Oc2cccc(F)c2)c1)N1CCCN(C2CCC2)CC1 [Example 6, (4-Cyclobutyl-[1,4]diazepan-1-yl)-[5-(3-fluoro-phenoxy)-pyridin-3-yl]-methanone]"
4,28.8,"O=C(c1cncc(Oc2ccc(F)cc2)c1)N1CCCN(C2CCC2)CC1 [Example 1, (4-Cyclobutyl-[1,4]diazepan-1-yl)-[5-(4-fluoro-phenoxy)-pyridin-3-yl]-methanone]"

# Biological target: T3, rat H3 receptor (rat brain membranes) (Rattus norvegicus, UniProt Q9QYN8)
# T3 construct: A rat brain without cerebellum (Zivic Laboratories Inc., Pittsburgh, Pa.) was homogenized; tissue Zivic Laboratories Inc; host or cells: rat brain without cerebellum, membranes
# Experiment: H3 Receptor Binding (Rat)
# Conditions: rat brain without cerebellum membranes; 0.8 nM N-[3H]-alpha-methylhistamine; IC50 converted to Ki (Kd 0.8 nM); tested as the corresponding TFA salt
# Description: A rat brain without cerebellum (Zivic Laboratories Inc., Pittsburgh, Pa.) was homogenized in 50 mM Tris-HCl/5 mM EDTA and centrifuged at 1,000 rpm for 5 min. The supernatant was removed and recentrifuged at 15,000 rpm for 30 min. Pellets were rehomogenized in 50 mM Tris/5 mM EDTA (pH 7.4). Membranes were incubated with 0.8 nM N—[^3H]-α-methylhistamine plus/minus test compounds for 60 min at 25° C. and harvested by rapid filtration over GF/C glass fiber filters (pretreated with 0.3% polyethylenimine) followed by four washes with buffer. Nonspecific binding was defined in the presence of 100 μM histamine. Inhibitory concentration (responsible for 50% inhibition of maximal effect, IC50) values were determined by a single site curve-fitting program (GraphPad, San Diego, Calif.) and converted to Ki values based on a N—[^3H]-α-methylhistamine dissociation constant (Kd) of 0.8 nM. The following results were obtained: Example 2, 28 nM; Example 6, 50 nM (tested as the corresponding TFA salt).
# T3 sequence (Q9QYN8 whole entry): as above
row,Ki [nM],SMILES
1,28,"O=C(c1cncc(Oc2cccc(Cl)c2)c1)N1CCCN(C2CCC2)CC1 [Example 2, [5-(3-Chloro-phenoxy)-pyridin-3-yl]-(4-cyclobutyl-[1,4]diazepan-1-yl)-methanone]"
2,50,"O=C(c1cncc(Oc2cccc(F)c2)c1)N1CCCN(C2CCC2)CC1 [Example 6, (4-Cyclobutyl-[1,4]diazepan-1-yl)-[5-(3-fluoro-phenoxy)-pyridin-3-yl]-methanone]"

# Biological target: T4, human H3 receptor (Homo sapiens, UniProt Q9Y5N1)
# T4 construct: expressed in transfected cells; host or cells: SK-N-MC cells
# Experiment: Cyclic AMP Accumulation (human H3)
# Type: cell-based
# Conditions: SK-N-MC cells expressing reporter construct and human H3 receptor; Example 1 tested as TFA salt
# Description: as §1
# T4 sequence (Q9Y5N1 whole entry): as the sequence (Q9Y5N1 whole entry) above
row,Human pA2,SMILES
1,8.87,"O=C(c1cncc(Oc2ccc(F)cc2)c1)N1CCCN(C2CCC2)CC1 [Example 1, (4-Cyclobutyl-[1,4]diazepan-1-yl)-[5-(4-fluoro-phenoxy)-pyridin-3-yl]-methanone]"

# Same assay, conditions: SK-N-MC cells expressing reporter construct and human H3 receptor; Example 1 tested as TFA salt; read-out: Human pA2 (converted)
row,Kb [nM],SMILES
1,0.955,"N#Cc1cccc(Oc2cncc(C(=O)N3CCCN(C4CCC4)CC3)c2)c1 [Example 3, 3-[5-(4-Cyclobutyl-[1,4]diazepane-1-carbonyl)-pyridin-3-yloxy]-benzonitrile]"
2,3.98,"O=C(c1cncc(Sc2ccc(F)cc2)c1)N1CCCN(C2CCC2)CC1 [Example 8, (4-Cyclobutyl-[1,4]diazepan-1-yl)-[5-(4-fluoro-phenylsulfanyl)-pyridin-3-yl]-methanone]"
3,2.4,"O=C(c1cncc(Oc2cccc(F)c2)c1)N1CCCN(C2CCC2)CC1 [Example 6, (4-Cyclobutyl-[1,4]diazepan-1-yl)-[5-(3-fluoro-phenoxy)-pyridin-3-yl]-methanone]"
